The text below walks through data of PubChem BioAssay (NCI).

Each structure is given as a SMILES string.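 96-well plates; 48 h exposure; 5 concentrations. Endpoints by linear interpolation between flanking doses. Not reached: highest tested concentration assigned. Definition used: TGI = concentration required for complete inhibition of growth.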

What all share (test): NCI-60 cell line screen, 48 h
The subject of test [1] is CCRF-CEM leukemia.
Test [2] relates to COLO 205 colon.
Test [3] has as its system HCC-2998 colon.
Test [4] deals with HCT-116 colon.
The subject of test [5] is LOX IMVI melanoma.
The subject of test [6] is MDA-MB-435.
Test [7] relates to RXF 393 renal.
In test [8] the test system is SK-OV-3 ovarian.

Take `COc1cc([C@@H]2c3cc4c(cc3[C@@H](c3c(O)cc(O)c5c3O[C@H](c3ccc(O)c(O)c3)[C@H](OC(=O)c3cc(O)c(O)c(O)c3)C5)[C@H]3COC(=O)[C@H]23)OCO4)cc(OC)c1O`: the TGI in test [1] was 59 µM; in test [2], 84.1 µM; in test [3] it was 92.3 µM; in test [4], > 100 µM; in test [5], > 100 µM; in test [6] it was 57.3 µM. For the same compound, the TGI in test [7] and in test [8] was > 100 µM throughout.

`N#Cc1c(N2CCCC2)nsc1Nc1ccc(F)cc1`: the TGI in test [1], in test [2], in test [3], in test [4], in test [5] and in test [6] was > 100 µM throughout. For the same compound, the TGI in test [7] and in test [8] was > 100 µM in each case.

Consider `OC(C1CCCCCCCCCC1)C(O)C1CCCCCCCCCC1` (stereo not drawn), for which the TGI in test [1], in test [2], in test [3], in test [4], in test [5] and in test [6] was > 100 µM each time. The TGI in test [7] and in test [8] was > 100 µM in each case.

Turning to `CC(=O)OCC1OC(n2c(N)c(C#N)c(-c3cccc(Cl)c3)c(C#N)c2=S)C(OC(C)=O)C(OC(C)=O)C1OC(C)=O` (stereo not drawn), the TGI is > 100 µM in test [1]; 29.7 µM in test [2]; 22.7 µM in test [3]; 94 µM in test [4]; 30.1 µM in test [5]; 50 µM in test [6]. Also, the results for the TGI in test [7] and in test [8] were 22 µM and 57.1 µM, respectively.

`CC(=O)N1C(Nc2cccc3nc(C)ccc23)CCN1c1ccccc1` (stereo not drawn): the TGI in test [1], in test [2], in test [3], in test [4], in test [5] and in test [6] was > 10 µM in each case. Further, the TGI in test [7] and in test [8] was > 10 µM in each case.

With `CC(=O)OCC1OC(SC2=NC(=O)/C(=C/c3ccccc3)S2)C(OC(C)=O)C(OC(C)=O)C1OC(C)=O` (stereo not drawn), the TGI in test [1] was 94.4 µM; in test [2], > 100 µM; in test [3], > 100 µM; in test [4], > 100 µM; in test [5] it was 42.9 µM; in test [6], 38.8 µM. The TGI is 67.6 µM in test [7] and > 100 µM in test [8].
